# Patent US20240174723A1, “STAPLED ANTIMICROBIAL PEPTIDES (STAMPS) AND USES THEREOF” (Lytica Therapeutics, Inc., priority 2021, published 2024)
# Positions of bridges follow the written chain, without caps; N, C: chain ends. Non-standard residues stand in square brackets, D forms with d. Residues, ends and D or L forms follow the SMILES beside them. PEG4 = NCCOCCOCCOCCOCCC(=O)O; S5 = C=CCCC[C@](C)(N)C(=O)O
# Columns and labels:
# [1] = system: Human Renal Proximal Tubule Epithelial Cells (RPTEC); test: in vitro; assay type: cell-based; settings: 90 min
# Outline: (§1)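 LDH release (absorbance at 490 nm) measured in the media of cells treated with serially diluted StAMPs or vehicle at 37 °C: 90 min for renal RPTEC, 48 h for liver HepG2. Cells were seeded overnight beforehand and media refreshed before dosing.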
# A. baumannii = assay type: cell-based, Acinetobacter baumannii
# Outline: (§2)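 Colonies are grown overnight at 37 °C, diluted and regrown 3-4 h. Bacteria in MHB or MHB II are then added to serial peptide dilutions to reach 5×10^5 CFU/ml. Plates are incubated 20-24 h at 37 °C and scored for the lowest concentration without visible growth.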
# [2] = system: Human Liver Cells (HepG2); test: in vitro; assay type: cell-based; settings: 48 hours
# Outline: (§3)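 Cytotoxicity read by CellTiter-Glo luminescence after 48 h at 37 °C exposure to serially diluted StAMPs or vehicle. HepG2 cells were grown in EMEM plus 10% FBS and given 4 h to attach before dosing; peptides came from a 5 mg/mL aqueous stock.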
# S. aureus = assay type: cell-based, Staphylococcus aureus
# Outline: as §2
# E. coli = assay type: cell-based, Escherichia coli
# Outline: as §2
# K. pneumoniae = assay type: cell-based, Klebsiella pneumoniae
# Outline: as §2
# P. aeruginosa = assay type: cell-based, Pseudomonas aeruginosa
# Outline: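 MIC taken as lowest peptide concentration with no visible growth after 20-24 h at 37 °C. Peptide serial dilutions from water stocks met P. aeruginosa inoculum (5×10^5 CFU/ml final) in MHB or MHB II, per a CLSI-adapted microbroth protocol.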
# in vitro [3] = assay type: cell-based; settings: human
# Outline: as §1
# in vitro [4] = assay type: cell-based; settings: human, Inhibitory Concentration at 50% Cytotoxicity (IC50) Human Liver Cells (HepG2)
# Outline: as §3
Minimum Inhibitory Concentration (MIC) A. baumannii (A. baumannii),Minimum Inhibitory Concentration (MIC) S. aureus (S. aureus),Minimum Inhibitory Concentration (MIC) E. coli (E. coli),Minimum Inhibitory Concentration (MIC) K. pneumoniae (K. pneumoniae),Minimum Inhibitory Concentration (MIC) P. aeruginosa (P. aeruginosa),IC50 at 90 min (in vitro [3]),Compound,Inhibitory Concentration at 50% Cytotoxicity (IC50) Human Renal Proximal Tubule Epithelial Cells (RPTEC) [1],Inhibitory Concentration at 50% Cytotoxicity (IC50) Human Liver Cells (HepG2) [2],IC50 at 48 hours (in vitro [4])
2 µg/mL,32 µg/mL,4 µg/mL,,,,"CC(C)[C@@H]1NC(=O)[C@@](C)(NC(=O)[C@H](C)NC(=O)[C@H](CCCCN)NC(=O)CNC(=O)[C@H](Cc2ccccc2)NC(=O)[C@H](CCCCN)NC(=O)[C@H](CCCCN)NC(=O)[C@H](CCCCN)NC(=O)[C@H](CO)NC(=O)[C@H](Cc2c[nH]cn2)NC(=O)[C@]2(C)CCCC=CCCC[C@](C)(NC(=O)CN)C(=O)NCC(=O)N[C@@H](CCCCN)C(=O)N[C@@H](Cc3ccccc3)C(=O)N2)CCCC=CCCC[C@@](C)(C(=O)N[C@@H](C)C(=O)N[C@@H](CCCCN)C(=O)N[C@@H](CCCCN)C(N)=O)NC(=O)[C@H](CCC(=O)O)NC(=O)[C@H](Cc2c[nH]c3ccccc23)NC1=O (single isomer, unassigned) [compound 65]",110 µg/mL,150 µg/mL,
0.5 µg/mL,>64 µg/mL,1 µg/mL,8 µg/mL,1 µg/mL,,"CC(C)[C@@H]1NC(=O)[C@@](C)(NC(=O)[C@H](C)NC(=O)[C@H](CCCCN)NC(=O)CNC(=O)[C@H](Cc2ccccc2)NC(=O)[C@H](CCCCN)NC(=O)[C@H](CCCCN)NC(=O)[C@H](CCCCN)NC(=O)[C@H](CCCCN)NC(=O)[C@H](CCN)NC(=O)[C@]2(C)CCCC=CCCC[C@](C)(NC(=O)CN)C(=O)NCC(=O)N[C@@H](CCCCN)C(=O)N[C@@H](Cc3ccccc3)C(=O)N2)CCCC=CCCC[C@@](C)(C(=O)N[C@@H](C)C(=O)N[C@@H](CCCCN)C(=O)N[C@@H](CCCCN)C(N)=O)NC(=O)[C@H](CCC(=O)O)NC(=O)CNC1=O (single isomer, unassigned) [compound 79]",,113 µg/mL,
2 µg/mL,>64 µg/mL,2 µg/mL,4 µg/mL,4 µg/mL,> 200 µg/mL,"CC(C)[C@@H]1NC(=O)[C@@](C)(NC(=O)[C@H](C)NC(=O)[C@H](CCCCN)NC(=O)CNC(=O)[C@H](Cc2ccccc2)NC(=O)[C@H](CCCCN)NC(=O)[C@H](CCCCN)NC(=O)[C@H](CCCCN)NC(=O)[C@H](CCCCN)NC(=O)[C@H](CCCCN)NC(=O)[C@]2(C)CCCC=CCCC[C@](C)(NC(=O)CN)C(=O)NCC(=O)N[C@@H](CCCCN)C(=O)N[C@@H](Cc3ccccc3)C(=O)N2)CCCC=CCCC[C@@](C)(C(=O)N[C@@H](C)C(=O)N[C@@H](CCCCN)C(=O)N[C@@H](CCCCN)C(=O)NCCOCCOCCOCCOCCC(N)=O)NC(=O)[C@H](CCC(=O)O)NC(=O)CNC1=O [compound 74] (H-G[S5]GKF[S5]KKKKKFGKA[S5]VGE[S5]AKK[PEG4]-NH2; staple 2-6, 16-20)",,,430 µg/mL
8 µg/mL,>64 µg/mL,16 µg/mL,>64 µg/mL,32 µg/mL,> 200 µg/mL,"CC(C)[C@@H]1NC(=O)[C@@](C)(NC(=O)[C@H](C)NC(=O)[C@H](CCCCN)NC(=O)CNC(=O)[C@H](Cc2ccccc2)NC(=O)[C@H](CCCCN)NC(=O)[C@H](CCCCN)NC(=O)[C@H](CCCCN)NC(=O)[C@H](CO)NC(=O)[C@H](Cc2c[nH]cn2)NC(=O)[C@]2(C)CCCC=CCCC[C@](C)(NC(=O)CN)C(=O)NCC(=O)N[C@@H](Cc3c[nH]c4ccccc34)C(=O)N[C@@H](Cc3ccccc3)C(=O)N2)CCCC=CCCC[C@@](C)(C(=O)N[C@@H](C)C(=O)N[C@@H](CCCCN)C(=O)N[C@@H](CCCCN)C(N)=O)NC(=O)[C@H](CCC(=O)O)NC(=O)CNC1=O [compound 58] (H-G[S5]GWF[S5]HSKKKFGKA[S5]VGE[S5]AKK-NH2; staple 2-6, 16-20)",,,> 200 µg/mL
4 µg/mL,32 µg/mL,4 µg/mL,8 µg/mL,8 µg/mL,24 µg/mL,"CC(C)[C@@H]1NC(=O)[C@@](C)(NC(=O)[C@H](C)NC(=O)[C@H](CCCCN)NC(=O)[C@H](Cc2c[nH]c3ccccc23)NC(=O)[C@H](Cc2ccccc2)NC(=O)[C@H](CCCCN)NC(=O)[C@H](CCCCN)NC(=O)[C@H](CCCCN)NC(=O)[C@H](CO)NC(=O)[C@H](Cc2c[nH]cn2)NC(=O)[C@]2(C)CCCC=CCCC[C@](C)(NC(=O)CN)C(=O)NCC(=O)N[C@@H](CCCCN)C(=O)N[C@@H](Cc3ccccc3)C(=O)N2)CCCC=CCCC[C@@](C)(C(=O)N[C@@H](C)C(=O)N[C@@H](CCCCN)C(=O)N[C@@H](CCCCN)C(N)=O)NC(=O)[C@H](CCC(=O)O)NC(=O)CNC1=O [compound 69] (H-G[S5]GKF[S5]HSKKKFWKA[S5]VGE[S5]AKK-NH2; staple 2-6, 16-20)",,,23 µg/mL
4 µg/mL,32 µg/mL,4 µg/mL,16 µg/mL,8 µg/mL,35 µg/mL,"CC(C)[C@@H]1NC(=O)[C@@](C)(NC(=O)[C@H](C)NC(=O)[C@H](CCCCN)NC(=O)CNC(=O)[C@H](Cc2ccccc2)NC(=O)[C@H](CCCCN)NC(=O)[C@H](CCCCN)NC(=O)[C@H](CCCCN)NC(=O)[C@H](CO)NC(=O)[C@H](Cc2c[nH]cn2)NC(=O)[C@]2(C)CCCC=CCCC[C@](C)(NC(=O)CN)C(=O)N[C@@H](Cc3c[nH]c4ccccc34)C(=O)N[C@@H](CCCCN)C(=O)N[C@@H](Cc3ccccc3)C(=O)N2)CCCC=CCCC[C@@](C)(C(=O)N[C@@H](C)C(=O)N[C@@H](CCCCN)C(=O)N[C@@H](CCCCN)C(N)=O)NC(=O)[C@H](CCC(=O)O)NC(=O)CNC1=O [compound 57] (H-G[S5]WKF[S5]HSKKKFGKA[S5]VGE[S5]AKK-NH2; staple 2-6, 16-20)",,,70 µg/mL
